Biological target: T1, human M2 receptor (Homo sapiens, UniProt P08172)
T1 construct: expressed in transfected cells; host or cells: CHO-DUKX (CHO-DUKX-M2-GIRK)
T1 sequence (P08172 1-466): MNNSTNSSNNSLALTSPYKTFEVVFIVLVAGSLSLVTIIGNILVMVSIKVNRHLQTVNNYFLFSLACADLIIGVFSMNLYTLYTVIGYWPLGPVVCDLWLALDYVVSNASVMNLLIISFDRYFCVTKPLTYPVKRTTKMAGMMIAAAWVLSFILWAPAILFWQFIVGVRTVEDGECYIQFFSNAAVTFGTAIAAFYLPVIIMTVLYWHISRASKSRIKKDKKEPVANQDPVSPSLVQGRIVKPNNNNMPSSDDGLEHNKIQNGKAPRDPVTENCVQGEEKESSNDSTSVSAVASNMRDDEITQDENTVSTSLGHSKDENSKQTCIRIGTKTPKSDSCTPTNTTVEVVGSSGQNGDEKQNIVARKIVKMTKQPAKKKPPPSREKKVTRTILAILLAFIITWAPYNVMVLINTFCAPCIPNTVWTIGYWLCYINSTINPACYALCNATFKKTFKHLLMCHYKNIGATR
Assay: Functional M2-GIRK1/4 activation test: allosteric potency (EC50) and efficiency at EC20 acetylcholine
Type: cell-based
Conditions: CHO-DUKX-M2-GIRK cells; for EC50: voltage-sensitive dye, acetylcholine at EC20, in some cases mean of two or more determinations; for Emax / Efficiency: boosting of the acetylcholine effect at EC20 acetylcholine concentration
Excerpt: The binding of orthosteric agonists (endogenous ligand: acetylcholine) to the M2 receptor leads to receptor activation or a change in conformation of the receptor in the manner of a shift in equilibrium in favour of the active receptor conformation.
The agonist-induced change in conformation of the M2 receptor results in a Gαi protein activation. […] Under physiological conditions, the result is then a selective efflux of potassium from the cell along the electrochemical gradient. […] The extent of hyperpolarization can therefore be regarded as a measure of the activation of the M2 receptor.
The test cell used is a recombinant CHO-DUKX cell line which has been stably transfected with cDNA coding for the human M2 receptor and with cDNA coding for both GIRK1/4 subunits (CHO-DUKX-M2-GIRK). The transmembrane potential, or the relative changes in the transmembrane potential as a function of substance addition or M2 activation, is determined by means of a voltage-sensitive dye (FLIPR Membrane Potential Assay Kit Blue, Molecular Devices #R8034) and the measurement of cell fluorescence using a proprietary fluorescence imaging instrument.
The sowing medium consisted of MEM alpha medium (supplemented with 5% PCS, 2% Glutamax, no genticin).
For the particular measurement, the medium was removed and the cells were laden with the volt-age-sensitive dye for at least 6 min at room temperature (30 μl of loading buffer per 384-well). This was followed, in a first measurement, by the determination of the fluorescence for the resting transmembrane potential for a period of 5 sec. Thereafter, 10 μl in each case of the test substances diluted in loading buffer were added, followed by a second measurement to determine the transmembrane potential for a period of 50 sec in 1 sec increments. Finally, the cells were admixed with 10 μl of agonist solution (acetylcholine dissolved in loading buffer). Acetylcholine was used at the concentration corresponding to the EC20, which had been determined in a preliminary test. The M2-mediated GIRK1/4 activation or hyperpolarization was then monitored in a third measurement over a period of 60 sec. The EC50 value (degree of allosteric potency of test compound) and the efficiency (measure of the boosting of the acetylcholine effect at an EC20 acetylcholine concentration) were determined with the aid of a 4-parameter logistic function (Hill function).

EC50 | Emax | Efficiency | SMILES
1.3 nM | 95% | – | CCC(NC(=O)c1cn(-c2c(F)cc(F)cc2F)c2nc(N3CC(CO)(CO)C3)c(F)cc2c1=O)C(F)(F)C(F)(F)F (racemic) [Example 171, 7-[3,3-Bis(hydroxymethyl)azetidin-1-yl]-6-fluoro-4-oxo-N-[1,1,1,2,2-pentafluoropentan-3-yl]-1-(2,4,6-trifluorophenyl)-1,4-dihydro-1,8-naphthyridine-3-carboxamide]
2.3 nM | 100% | – | CC(C)C(COC(F)(F)F)NC(=O)c1cn(-c2c(F)cc(F)cc2F)c2nc(N3C[C@@H](O)[C@H](O)C3)c(F)cc2c1=O (mixture of isomers) [Example 233, 7-[(3R,4R)-3,4-dihydroxypyrrolidin-1-yl]-6-fluoro-N-[3-methyl-1-(trifluoromethoxy)butan-2-yl]-4-oxo-1-(2,4,6-trifluorophenyl)-1,4-dihydro-1,8-naphthyridine-3-carboxamide]
2.5 nM | 100% | – | CCC(NC(=O)c1cn(-c2c(F)cc(F)cc2F)c2nc(N3C[C@@H](O)[C@H](O)C3)c(F)cc2c1=O)C(C)C (single isomer, unassigned) [Example 29]
48 nM | 81% | – | CC[C@H](NC(=O)c1cn(-c2c(F)cc(F)cc2Cl)c2nc(N3C[C@@H](O)[C@H](O)C3)c(F)cc2c1=O)C(F)(F)F (single isomer, unassigned) [Example 47]
36 nM | 81% | – | O=C(N[C@@H](C1CC1)C(F)(F)F)c1cn(-c2c(F)cc(F)cc2Cl)c2nc(N3C[C@@H](O)[C@H](O)C3)c(F)cc2c1=O (single isomer, unassigned) [Example 51]
1.3 nM | – | 83% | O=C(N[C@@H](C1CC1)C(F)(F)F)c1cn(-c2c(F)cc(F)cc2Cl)c2nc(N3C[C@@H](O)[C@H](O)C3)c(F)cc2c1=O (single isomer, unassigned) [Example 52]
35 nM | 92% | – | CCN(CC(C)O)c1nc2c(cc1F)c(=O)c(C(=O)N[C@@H](C1CC1)C(F)(F)F)cn2-c1c(F)cc(F)cc1F (single isomer, unassigned) [Example 66]
10 nM | – | 95% | CCN(CC(C)O)c1nc2c(cc1F)c(=O)c(C(=O)N[C@@H](C1CC1)C(F)(F)F)cn2-c1c(F)cc(F)cc1F (single isomer, unassigned) [Example 67]
100 nM | 86% | – | O=C(N[C@@H](C1CC1)C(F)(F)F)c1cn(-c2c(F)cc(F)cc2Cl)c2nc(N3CC(CO)(CO)C3)c(F)cc2c1=O (single isomer, unassigned) [Example 70]
9.8 nM | 90% | – | CC(NC(=O)c1cn(-c2ncc(F)cc2F)c2nc(N3CC[C@H](O)C3)c(F)cc2c1=O)C(F)(F)C(F)(F)F (single isomer, unassigned) [Example 128]
3.3 nM | 91% | – | CC(C)C(NC(=O)c1cn(-c2c(F)cc(F)cc2F)c2nc(N3C[C@@H](O)[C@@H](O)C3)c(F)cc2c1=O)C(F)(F)F (single isomer, unassigned) [Example 137]
7.6 nM | – | 84% | CC(C)C(NC(=O)c1cn(-c2c(F)cc(F)cc2F)c2nc(N3C[C@@H](O)[C@@H](O)C3)c(F)cc2c1=O)C(F)(F)F (single isomer, unassigned) [Example 138]

More lines, now with the values behind:

SMILES | EC50 | Emax | Efficiency
CC(NC(=O)c1cn(-c2c(F)cc(F)cc2F)c2nc(N3CC(CO)(CO)C3)c(F)cc2c1=O)C(F)(F)C(F)(F)F (racemic) [Example 168, 7-[3,3-Bis(hydroxymethyl)azetidin-1-yl]-6-fluoro-4-oxo-N-[3,3,4,4,4-pentafluorobutan-2-yl]-1-(2,4,6-trifluorophenyl)-1,4-dihydro-1,8-naphthyridine-3-carboxamide] | 4 nM | 86% | –
CCC(NC(=O)c1cn(-c2c(F)cc(F)cc2F)c2nc(N3C[C@@H](O)[C@H](O)C3)c(F)cc2c1=O)C(C)C (single isomer, unassigned) [Example 30] | 2.6 nM | – | 100%
CC(NC(=O)c1cn(-c2ncc(F)cc2F)c2nc(N3CC(O)C(O)C3)c(F)cc2c1=O)C(F)(F)C(F)(F)F (single isomer, unassigned) [Example 46] | 51 nM | – | 100%
CC(C)(NC(=O)c1cn(-c2c(F)cc(F)cc2Cl)c2nc(N3C[C@@H](O)[C@H](O)C3)c(F)cc2c1=O)C(F)(F)F (single isomer, unassigned) [Example 49] | 68 nM | 74% | –
CC(C)(NC(=O)c1cn(-c2c(F)cc(F)cc2Cl)c2nc(N3C[C@@H](O)[C@H](O)C3)c(F)cc2c1=O)C(F)(F)F (single isomer, unassigned) [Example 50] | 2.5 nM | – | 60%
CCC(COC(F)(F)F)NC(=O)c1cn(-c2c(F)cc(F)cc2F)c2nc(N3C[C@@H](O)[C@@H](O)C3)c(F)cc2c1=O (single isomer, unassigned) [Example 96] | 16 nM | 96% | –
CCC(COC(F)(F)F)NC(=O)c1cn(-c2c(F)cc(F)cc2F)c2nc(N3C[C@@H](O)[C@@H](O)C3)c(F)cc2c1=O (single isomer, unassigned) [Example 97] | 13 nM | – | 97%
CCC(COC(F)(F)F)NC(=O)c1cn(-c2c(F)cc(F)cc2F)c2nc(N3CC[C@H](O)C3)c(F)cc2c1=O (single isomer, unassigned) [Example 110] | 19 nM | 100% | –
CCC(COC(F)(F)F)NC(=O)c1cn(-c2c(F)cc(F)cc2F)c2nc(N3CC[C@H](O)C3)c(F)cc2c1=O (single isomer, unassigned) [Example 111] | 7.2 nM | – | 99%
CC(NC(=O)c1cn(-c2c(F)cc(F)cc2F)c2nc(N3CC[C@H](O)C3)c(F)cc2c1=O)C(F)(F)C(F)(F)F (single isomer, unassigned) [Example 114] | 7 nM | – | 94%
CCC(NC(=O)c1cn(-c2c(F)cc(F)cc2F)c2nc(N3CC[C@H](O)C3)c(F)cc2c1=O)C(C)C (single isomer, unassigned) [Example 117] | 6.9 nM | 99% | –
CCC(NC(=O)c1cn(-c2c(F)cc(F)cc2F)c2nc(N3CC[C@H](O)C3)c(F)cc2c1=O)C(C)C (single isomer, unassigned) [Example 118] | 2.8 nM | – | 100%
CC(NC(=O)c1cn(-c2ncc(F)cc2F)c2nc(N3CC[C@H](O)C3)c(F)cc2c1=O)C(F)(F)C(F)(F)F (single isomer, unassigned) [Example 129] | 66 nM | – | 95%
CC(C)C(NC(=O)c1cn(-c2c(F)cc(F)cc2F)c2nc(N3CC[C@H](O)C3)c(F)cc2c1=O)C(F)(F)F (single isomer, unassigned) [Example 139] | 3.4 nM | 100% | –
CC(C)C(NC(=O)c1cn(-c2c(F)cc(F)cc2F)c2nc(N3CC[C@H](O)C3)c(F)cc2c1=O)C(F)(F)F (single isomer, unassigned) [Example 140] | 5.3 nM | – | 95%
CC(C)(NC(=O)c1cn(-c2c(F)cc(F)cc2Cl)c2nc(N3C[C@@H](O)[C@H](O)C3)c(F)cc2c1=O)C(F)F (single isomer, unassigned) [Example 142] | 39 nM | 99% | –

Reference: patent US11472803B2, “7-substituted 1-aryl-naphthyridine-3-carboxylic acid amides and use thereof” (Bayer Aktiengesellschaft, priority 2016, dated 2022)
